Assay results from patent publication US20200003760A1, “IN-VITRO METHODS FOR CLASSIFYING DRUGS ACCORDING TO THEIR POTENTIAL TO CAUSE LIVER CELL INJURY” (Board of Trustees of Michigan State University, priority 2018, published 2020).
Entries after “also recorded” stand apart in the source; their conditions may differ. Like-named read-outs stand apart in the source and are kept apart here.

What was measured:
[1] = test system: HepG2 cells; experiment: Drug/cytokine-induced cytotoxicity (% LDH release) concentration-response in HepG2 cells; format: cell-based, human; design: key to Deltadiff: LDH release percentage points (drug/TNF Delta minus drug/VEH Delta); conditions: for R10 / R10 IFN / R10 TNF / R10 TNF/IFN: 10 percent increase in LDH response above min, 0 when D10 = 0; for R10 / Emax: drug alone (VEH); for R10 IFN: with IFN; for R10 TNF: with TNF; for Deltadiff: Delta of drug/TNF curve minus Delta of drug/VEH curve (LDH percentage); for cytotoxic interaction of drug with TNF: TNF 10 ng/ml; for cytotoxicity of drug on its own (LDH release): absence of cytokines; for Emax: Homo sapiens, HepG2; for TNF change: D10TNF − D10VEH
Outline: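 Cells at passage 6-16 were treated for 24 hours with drug or vehicle (water or DMSO <0.5%), alone or with TNF (10 ng/ml) and/or IFN (10 ng/ml), after overnight attachment. Cytotoxicity was scored as LDH released into medium; concentrations were expressed as [drug]/Cmax, with four-parameter logistic fits giving EC50, EC10 and R10 (+10 LDH points over baseline).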

[2] = test system: HepG2 cells; experiment: Point of departure (POD) from censored concentration-response relationships in HepG2 cells; format: cell-based, human; conditions: censored CRRs, 4-parameter log-logistic model
Excerpt: Partial, or censored, CRRs were then created using concentrations at or below the EC50. Nine CRC models were fit to the partial CRRs for all 24 drugs and compared to identify the best-fitting CRC model overall. Models were compared using Akaike Information Criteria (AIC; Akaike 1973, Burnham & Anderson 2002). The 4-parameter log-logistic model was selected to model censored CRRs for each of the 24 drugs since it provided the best fit (lowest AIC) for the majority of drugs. […] PODs provided a robust measure to characterize each of the CRCs using the low-concentration regions of the CRRs. In addition to POD.DRUG and POD.DRUG+TNF, POD.DIFF (i.e., POD.DRUG−POD.DRUG+TNF) and POD.RATIO (i.e., POD.DRUG/POD.DRUG+TNF) were used as covariates in the logistic regression model developed to classify the drugs according to their IDILI status. […] The horizontal blue line illustrates the mean control value estimated by pooling LDH % responses at the zero concentrations for both CRRs above. The horizontal dashed red line illustrates an upper limit of the pooled control data as the control mean plus 2 control standard deviations. PODs were then calculated for each curve as the effective concentration corresponding to the upper limit of the pooled control data, shown as vertical dashed red lines.

[3] = maximal plasma concentration after pharmacologic dosing in human patients; cited from earlier work
[4] = Logistic regression classification model: probability that a drug is associated with IDILI; design: species or system human
Excerpt: Classification modeling using defined covariates. In the second phase of analysis, classification models were developed using logistic regression with covariates as independent variables in the analysis and known IDILI classification as the dependent variable. A model selection process was used to determine if a covariate or set of covariates is associated with IDILI liability. Covariates were first evaluated individually to determine how well a particular covariate classified drugs according to IDILI liability, and then covariates were evaluated in combination. Combinations of covariates were selected to maximize the ability of the model to distinguish between drugs associated or not with IDILI. Specifically, covariates that describe changes in efficacy (Delta, Deltadiff, etc.) were paired with covariates that describe changes in potency (EC50, EC10, R10, etc.) to find covariate combinations that led to models that most accurately discriminated between drugs that are and are not associated with IDILI. […] The logistic regression models follow the equation: […]
where ŷi is the calculated (predicted) probability that drug i with a vector of covariates xi is associated with IDILI. The β coefficients (β0, the regression intercept; and βi, the regression slopes for model covariates, xi) were derived from the logistic regression models using 1) combinations of the covariates (xi) generated by concentration-response modeling for each of the 24 drugs evaluated in this study, and 2) the true IDILI classification for the dependent variable yi (i.e., 1 for IDILI+drugs and 0 for IDILI-drugs). […] This occurs when a covariate almost perfectly separates observations into the appropriate categories. […] When separation or quasi-complete separation occurs, use of the standard method (i.e., maximum likelihood estimation) provides biased, unreliable estimates of βi.
Receiver operating characteristic (ROC) analysis. In the third phase of the statistical approach, the classification models, generated as logistic regression models using single covariates or combinations of covariates, were evaluated by ROC analysis to determine which model and corresponding sets of covariates led to the most accurate classification of drugs according to their potential to cause IDILI. An ROC curve was created for each model by graphing the true positive rate (sensitivity; i.e., proportion of drugs correctly classified as associated with IDILI) against the false positive rate (1-specificity; i.e., proportion of drugs incorrectly classified as associated with IDILI) at various probability cutoff thresholds (k). […] An area under the curve (AUC) and confidence interval was computed for each ROC curve (where each logistic regression model has one ROC curve). […] Corresponding to each ROC curve is an optimal threshold value (k*), the threshold yielding the highest point of accuracy on the curve (i.e., the point nearest the point […] on the curve). Thus, each ROC curve has a corresponding AUC and an optimal cutoff (k*) that corresponds to the highest point of accuracy on that ROC curve.

[5] = cited from earlier work
[6] = categorical, Delta threshold 10 LDH percentage points, read-out: D10
[7] = maximal LDH response, 24 h, read-out: max

N[C@@H]1[C@H]2CN(c3nc4c(cc3F)c(=O)c(C(=O)O)cn4-c3ccc(F)cc3F)C[C@@H]12 [Trovafloxacin]
R10 [1]: 0 [drug]/Cmax
R10 IFN [1]: 0 [drug]/Cmax
R10 TNF [1]: 4.8 [drug]/Cmax
R10 TNF/IFN ([1]; with TNF and IFN): 1.2 [drug]/Cmax
Deltadiff [1]: 27.4
cytotoxic interaction of drug with TNF ([1]; HepG2, 24 h): TNF significantly enhanced the cytotoxicity
effect of IFN coexposure on the drug/TNF cytotoxic interaction ([1]; HepG2, 24 h, TNF and IFN 10 ng/ml each): coexposure to IFN enhanced the cytotoxic interaction
cytotoxicity of drug on its own (LDH release) ([1]; HepG2, 24 h): statistically significant increase in LDH release
Emax [1, 6]: < 10%
Emax [1, 7]: 18.7%
TNF change ([1]; categorical): 1
EC10 TNF ([1]; value corresponding to 10% of Delta, with TNF 10 ng/ml, NA = no significant increase): 2.3 [drug]/Cmax
EC10 TNF/IFN ([1]; value corresponding to 10% of Delta, with TNF and IFN, NA = no significant increase): 0.5 [drug]/Cmax
POD.DRUG versus POD.DRUG+TNF [2]: POD.DRUG occurs at a relatively higher concentration than POD.DRUG+TNF
Cmax [3]: 5 µM

O=C(O)[C@H]1/C(=C/CO)O[C@@H]2CC(=O)N21 [Clavulanate]
R10 [1]: 0 [drug]/Cmax
R10 IFN [1]: 0 [drug]/Cmax
R10 TNF [1]: 0 [drug]/Cmax
R10 TNF/IFN ([1]; with TNF and IFN): 0 [drug]/Cmax
Deltadiff [1]: 3.1
cytotoxic interaction of drug with TNF ([1]; HepG2, 24 h): interacted only weakly with TNF
cytotoxic interaction of drug with TNF ([1]; HepG2, 24 h, listed as clavulanate): synergized with TNF to cause cytotoxicity; also recorded: small but statistically significant
cytotoxicity of drug on its own (LDH release) ([1]; HepG2, 24 h): caused no cytotoxicity on their own
Emax [1, 6]: < 10%
Emax [1, 7]: 17.4%
TNF change ([1]; categorical): 0
classification by the best-performing model ([4]; optimal cutoff): correctly as IDILI1
Estimated probability ([4]; probability that drug is associated with IDILI, covariates Deltadiff, EC50 VEH, EC50 TNF, Delta VEH, Cmax, optimal cutoff 0.46): 0.9509
Cmax [3]: 12 µM
True classification ([5]; IDILI in human patients): IDILI+
IDILI liability ([5]; criteria of Xu et al. (2008)): IDILI+
pattern of liver injury in humans ([5]; human patients): cholestatic pattern of injury
